Assay results: paper PMC4297448, “Detection of distinct glycosylation patterns on human γ-glutamyl transpeptidase 1 using antibody-lectin sandwich array (ALSA) technology” (BMC Biotechnology, 2014)

The compounds below were run against T1, microvirin (MVN) (Microcystis aeruginosa, UniProt Q2MDE2) (assay: CFG glycan microarray V5.[…], fluorescence). Conditions: biotinylated MVN 200 μg/mL, Alexa Fluor 488-avidin; glycan immobilised via spacer.
T1 construct: full-length, N-terminal hexahistidine tag (pET-15b), E. coli BL21(DE3), Ni-NTA purified, biotinylated with NHS-SS-biotin
T1 sequence (Q2MDE2 1-108): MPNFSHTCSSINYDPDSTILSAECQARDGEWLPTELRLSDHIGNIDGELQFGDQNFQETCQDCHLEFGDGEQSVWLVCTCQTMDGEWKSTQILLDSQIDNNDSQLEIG
Type: binding

Compound	Fluorescence (%) ^a [%]
CC(=O)N[C@@H]1[C@@H](O)[C@H](O[C@@H]2O[C@H](CO)[C@@H](O[C@@H]3O[C@H](CO[C@H]4O[C@H](CO[C@H]5O[C@H](CO)[C@@H](O)[C@H](O)[C@@H]5O[C@H]5O[C@H](CO)[C@@H](O)[C@H](O)[C@@H]5O)[C@@H](O)[C@H](O[C@H]5O[C@H](CO)[C@@H](O)[C@H](O)[C@@H]5O)[C@@H]4O)[C@@H](O)[C@H](O[C@H]4O[C@H](CO)[C@@H](O)[C@H](O)[C@@H]4O[C@H]4O[C@H](CO)[C@@H](O)[C@H](O)[C@@H]4O[C@H]4O[C@H](CO)[C@@H](O)[C@H](O)[C@@H]4O)[C@@H]3O)[C@H](O)[C@H]2NC(C)=O)[C@@H](CO)O[C@H]1NC(=O)C[C@H](N)C(=O)O [compound 212, Manα1-2Manα1-6(Manα1-3)Manα1-6(Manα1-2Manα1-2Manα1-3)Manβ1-4GlcNAcβ1-4GlcNAcβ-Sp12]	100.0
Manα1-2Manα1-2Manα1-6(Manα1-3)Manα-Sp9 [compound 215]	78.1
CC(=O)N[C@@H]1[C@@H](O)[C@H](O[C@@H]2O[C@H](CO)[C@@H](O[C@@H]3O[C@H](CO[C@H]4O[C@H](CO[C@H]5O[C@H](CO)[C@@H](O)[C@H](O)[C@@H]5O)[C@@H](O)[C@H](O[C@H]5O[C@H](CO)[C@@H](O)[C@H](O)[C@@H]5O[C@H]5O[C@H](CO)[C@@H](O)[C@H](O)[C@@H]5O)[C@@H]4O)[C@@H](O)[C@H](O[C@H]4O[C@H](CO)[C@@H](O)[C@H](O)[C@@H]4O[C@H]4O[C@H](CO)[C@@H](O)[C@H](O)[C@@H]4O)[C@@H]3O)[C@H](O)[C@H]2NC(C)=O)[C@@H](CO)O[C@H]1NC(=O)C[C@H](N)C(=O)O [compound 211, Manα1-6(Manα1-2Manα1-3)Manα1-6(Manα1-2Manα1-3)Manβ1-4GlcNAcβ1-4GlcNAcβ-Sp12]	31.7
Manα1-2Manα1-2Manα1-3Manα-Sp9 [compound 208]	63.8
Manα1-2Manα1-6(Manα1-2Manα1-3)Manα-Sp9 [compound 209]	39.5
Manα1-2Manα1-3Manα-Sp9 [compound 210]	57.7
Manα1-2Manα1-6(Manα1-3)Manα1-6(Manα1-2Manα1-2Manα1-3)Manα-Sp9 [compound 316]	48.8
CC(=O)N[C@@H]1[C@@H](O)[C@H](O[C@@H]2O[C@H](CO)[C@@H](O[C@@H]3O[C@H](CO[C@H]4O[C@H](CO[C@H]5O[C@H](CO)[C@@H](O)[C@H](O)[C@@H]5O[C@H]5O[C@H](CO)[C@@H](O)[C@H](O)[C@@H]5O)[C@@H](O)[C@H](O[C@H]5O[C@H](CO)[C@@H](O)[C@H](O)[C@@H]5O[C@H]5O[C@H](CO)[C@@H](O)[C@H](O)[C@@H]5O)[C@@H]4O)[C@@H](O)[C@H](O[C@H]4O[C@H](CO)[C@@H](O)[C@H](O)[C@@H]4O[C@H]4O[C@H](CO)[C@@H](O)[C@H](O)[C@@H]4O[C@H]4O[C@H](CO)[C@@H](O)[C@H](O)[C@@H]4O)[C@@H]3O)[C@H](O)[C@H]2NC(C)=O)[C@@H](CO)O[C@H]1NC(=O)C[C@H](N)C(=O)O [compound 213, Manα1-2Manα1-6(Manα1-2Manα1-3)Manα1-6(Manα1-2Manα1-2Manα1-3)Manβ1-4GlcNAcβ1-4GlcNAcβ-Sp12]	19.8
Manα1-2Manα1-6(Manα1-2Manα1-3)Manα1-6(Manα1-2Manα1-2Manα1-3)Manα-Sp9 [compound 317]	34.9
